Assays:
[1] = tested on: substance P induced plasma extravasation; assay: Antagonism of substance P induced plasma extravasation in guinea-pigs; type: in vivo; details: lowest active dose, female guinea-pigs; for LAD nose: compound 1 hour prior to substance P (2 mg/kg, femoral artery), blue colouring of nose 10 minutes after challenge; for LAD conjunctiva / LAD forepaws / LAD trachea / LAD urinary bladder: compound 1 hour prior to substance P; for LAD conjunctiva: blue colouring of conjunctiva 10 minutes after challenge; for LAD forepaws: blue colouring of forepaws 10 minutes after challenge; for LAD trachea: blue colouring of trachea 30 minutes after challenge; for LAD urinary bladder: blue colouring of urinary bladder 30 minutes after challenge
Excerpt: (§1) The compounds of the present invention are potent inhibitors of neurokinin-mediated effects, in particular those mediated via the NK1 receptor, and may therefore be described as tachykinin antagonists, especially as substance P antagonists, as indicated in vitro by the antagonism of substance P induced relaxation of pig coronary arteries which is described hereinafter. The binding affinity of the present compounds for the human, guinea-pig and gerbil neurokinin receptors may be determined in vitro in a receptor binding test using ^3H-substance-P as radioligand. The subject compounds also show substance-P antagonistic activity in vivo as may be evidenced by, for instance, the antagonism of substance P-induced plasma extravasation in guinea-pigs, or the antagonism of drug-induced emesis in ferrets (Watson et al., Br. J. Pharmacol. 115, 84-94, 1995).
Antagonism of substance P induced plasma extravasation in guinea-pigs
Plasma extravasation was induced by injection of substance P (2 mg/kg) in the femoral artery of female guinea-pigs. Evans Blue dye (30 mg/kg) was injected simultaneously. The test compound or solvent was administered 1 hour prior to substance P injection. 10 minutes after challenge, the aminals were checked for blue colouring (a direct measure for plasma extravasation) of the nose, the forepaws, and the conjectiva. 30 minutes after challenge, the animals were sacrificed by CO2 gas inhalation and checked for blue colouring of the trachea and the urinary bladder. […]

[2] = tested on: substance-P induced relaxation of the pig coronary arteries; assay: Antagonism of substance-P induced relaxation of the pig coronary arteries; type: cell-based; details: concentration at which 50% of the response to 10^−9 M substance P was inhibited, 30 minutes incubation, prostaglandin F2a precontracted segments
Excerpt: as §1
Antagonism of substance-P induced relaxation of the pig coronary arteries
Segments of coronary artieries taken from pigs (killed by injection of an overdose of sodium pentobarbital) were inverted and mounted for recordign of isometric tension in organ baths (volume 20 ml) with the endothelium at the outside. The preparations were bathed in Krebs-Henseleit solution. The solution was kept at 37° C. and gassed with a mixture of O2/CO2 (95/5). After stabilisation of the preparations, prostaglandin F2a (10^−5 M) was administered to induce a contraction. This was repeated until contractivle responses became stable. Then prostaglandin F2a was again administered and substance P(3×10^−10 M and 10^−9 M cumulatively) was added. Substance P induced endothelium dependent relaxations. After washing away the agonists, a known concentratin of a compound of formula (I) was added. After an incubation period of 30 minutes, prostaglandin F2a ([…]) and the same concentrations of sbustance P as described above were again administered in the presence of the compound to be tested. Relaxations caused by substance P were expressed as relaxations under control conditions, and percent inhibition of the response to […] substance P was taken as a measure of the antagonistic activity of the compound to be tested. Table 6 lists the IC50 values (concentration at which 50% of the response to […] substance P was inhibited by the test compound) for the tested compounds.

Structure (SMILES)	LAD nose [1]	LAD conjunctiva [1]	LAD forepaws [1]	LAD trachea [1]	LAD urinary bladder [1]	IC50 [2]	IC50 ([2]; Sus scrofa, 0.5 h)
O=C(O)C=CC(=O)O.O=C(O)C=CC(=O)O.O=C(c1cc(C(F)(F)F)cc(C(F)(F)F)c1)N1CCC(N2CCCN(Cc3ccccc3)CC2)CC1Cc1ccccc1 (racemic) [Compound 68]	10.0 mg/kg	40.0 mg/kg	10.0 mg/kg	>40 mg/kg	>40 mg/kg	5.88 nM	
Cc1ncc(Cn2c(N3CCN([C@H]4CCN(C(=O)c5cc(C(F)(F)F)cc(C(F)(F)F)c5)[C@@H](Cc5ccccc5)C4)CC3)nc3ccccc32)o1 (racemic) [Compound 70, (±)-cis-1-[3,5-bis(trifluoromethyl)benzoyl]-4-[4-[1-[(2-methyl-5-oxazolyl)methyl]-1H-benzimidazol-2-yl]-1-piperazinyl]-2-(phenylmethyl)piperidine]	10.0 mg/kg	10.0 mg/kg	10.0 mg/kg	10.0 mg/kg	10.0 mg/kg		0.29 nM
Cc1ncc(Cn2c(N3CCN(C4CCN(C(=O)c5cc(C(F)(F)F)cc(C(F)(F)F)c5)C(Cc5ccccc5)C4)CC3)nc3ccccc32)o1 (racemic) [Compound 85]	2.50 mg/kg	2.50 mg/kg	2.50 mg/kg	2.50 mg/kg	10.0 mg/kg	0.15 nM	
Cc1cc(C)cc(COC(CN2CCN(C3CCN(C(=O)c4cc(C(F)(F)F)cc(C(F)(F)F)c4)C(Cc4ccccc4)C3)CC2)c2ccccc2)c1 (racemic) [Compound 87]	10.0 mg/kg	10.0 mg/kg	10.0 mg/kg	10.0 mg/kg	>40 mg/kg	1.9 nM	
Cc1cccc(C)c1NC(=O)C(c1ccccc1)N1CCN(C2CCN(C(=O)c3cc(C(F)(F)F)cc(C(F)(F)F)c3)C(Cc3ccccc3)C2)CC1 (racemic) [Compound 94]	2.50 mg/kg	2.50 mg/kg	2.50 mg/kg	10.0 mg/kg	10.0 mg/kg	0.42 nM	
O=C(CN1CCN(C2CCN(C(=O)c3cc(C(F)(F)F)cc(C(F)(F)F)c3)C(Cc3ccccc3)C2)CC1)N1CCCc2ccccc21 (racemic) [Compound 101]	10.0 mg/kg	10.0 mg/kg	10.0 mg/kg	>40 mg/kg	>40 mg/kg	0.75 nM	
Cc1cccc(C)c1NC(=O)CCN1CCN(C2CCN(C(=O)c3cc(C(F)(F)F)cc(C(F)(F)F)c3)C(Cc3ccccc3)C2)CC1 (racemic) [Compound 105]	2.50 mg/kg	2.50 mg/kg	2.50 mg/kg	>40 mg/kg	>40 mg/kg	1.05 nM	
O=C(CN1CCN(C2CCN(C(=O)c3cc(C(F)(F)F)cc(C(F)(F)F)c3)C(Cc3ccccc3)C2)CC1)N1CCc2ccccc21 (racemic) [Compound 107]	2.50 mg/kg	2.50 mg/kg	2.50 mg/kg	2.50 mg/kg	10.0 mg/kg	0.96 nM	
Cc1ncc(CN2CCN(C3CCN(C(=O)c4cc(C(F)(F)F)cc(C(F)(F)F)c4)C(Cc4ccccc4)C3)CC2)o1 (racemic) [Compound 119]	2.50 mg/kg	2.50 mg/kg	2.50 mg/kg	10.0 mg/kg	>40 mg/kg	2.81 nM	
Cc1cccc(C)c1NC(=O)CN1CCN([C@H]2CCN(C(=O)c3cc(C(F)(F)F)cc(C(F)(F)F)c3)[C@@H](Cc3cc(F)cc(F)c3)C2)CC1 (racemic) [Compound 132, (±)-cis-4-[1-[3,5-bis (trifluoromethyl)benzoyl]-2-[(3,5-difluorophenyl)methyl]-4-piperidinyl]-N-(2,6-dimethylphenyl)-1-piperazineacetamide]	10.0 mg/kg	10.0 mg/kg	10.0 mg/kg	10.0 mg/kg	10.0 mg/kg		2.08 nM
Cc1cccc(C)c1NC(=O)CN1CCN([C@@H]2CCN(C(=O)c3cc(C(F)(F)F)cc(C(F)(F)F)c3)[C@@H](Cc3cc(F)cc(F)c3)C2)CC1 (racemic) [Compound 133, (±)-trans-4-[1-[3,5-bis(trifluoromethyl)benzoyl]-2-[(3,5-difluorophenyl)methyl]-4-piperdinyl]-N-(2,6-dimethylphenyl)-1-piperazineacetamide]	2.50 mg/kg	2.50 mg/kg	2.50 mg/kg	10.0 mg/kg	10.0 mg/kg	0.62 nM	
Cc1cccc(C)c1NC(=O)CN1CCN(C2CCN(C(=O)c3cc(C(F)(F)F)cc(C(F)(F)F)c3)C(Cc3ccc(F)c(F)c3)C2)CC1 (racemic) [Compound 134]	10.0 mg/kg	10.0 mg/kg	10.0 mg/kg	10.0 mg/kg	10.0 mg/kg	0.04 nM	
Cc1cccc(C)c1NC(=O)CN1CCN(C2CCN(C(=O)c3cc(C(F)(F)F)cc(C(F)(F)F)c3)C(Cc3ccc(F)c(F)c3)C2)CC1 (racemic) [Compound 135]	0.63 mg/kg	0.63 mg/kg	0.63 mg/kg	2.50 mg/kg	>40 mg/kg	0.01 nM	
Cc1cccc(C)c1NC(=O)CN1CCN(C2CCN(C(=O)c3cc(C(F)(F)F)cc(C(F)(F)F)c3)C(Cc3ccc(Cl)c(Cl)c3)C2)CC1 (racemic) [Compound 138]	2.50 mg/kg	2.50 mg/kg	2.50 mg/kg	10.0 mg/kg	>40 mg/kg	0.16 nM	
Cc1cccc(C)c1NC(=O)CN1CCN([C@@H]2CCN(C(=O)c3cc(C(F)(F)F)cc(C(F)(F)F)c3)[C@@H](Cc3ccc(Cl)c(Cl)c3)C2)CC1 (racemic) [Compound 139, (±)-trans-4-[1-[3,5-bis(trifluoromethyl)benzoyl]-2-[(3,4-dichlorophenyl)methyl]-4-piperidinyl]-N-(2,6-dimethylphenyl)-1-piperazineacetamide]	2.50 mg/kg	2.50 mg/kg	2.50 mg/kg	2.50 mg/kg	2.50 mg/kg		0.13 nM
Cc1cccc(C)c1NC(=O)CN1CCN([C@@H]2CCN(C(=O)c3cc(C(F)(F)F)cc(C(F)(F)F)c3)[C@@H](Cc3ccccc3)C2)CC1.O=C(O)C[C@H](O)C(=O)O (relative stereo) [Compound 95, (+)-(B)-trans-4-[1-[3,5-bis(trifluoromethyl)benzoyl]-2-(phenylmethyl)-4-piperidinyl]-N-(2,6-dimethylphenyl)-1-piperazine acetamide. (L)-malic acid (1:1)]	0.31 mg/kg	0.31 mg/kg	0.31 mg/kg	0.63 mg/kg	2.50 mg/kg	0.1 nM	

From patent USRE37886E1, “1-(1,2-Disubstituted piperidinyl)-4-substituted piperazine derivatives” (Janssen Pharmaceuticals, N.V., priority 1995, dated 2002)
